Data on 13 molecules can be found in patent publication US20240228490A1, “HETEROCYCLIC DERIVATIVE INHIBITOR AND PREPARATION METHOD THEREFOR AND APPLICATION THEREOF” (Shanghai Hansoh Biomedical Co., Ltd., priority 2021, published 2024).

Structures are written as SMILES. Where two headings read alike, the source gives them in different places.

The target of data set [1] is PARP1 enzyme (Homo sapiens (Human), UniProt P09874). The data set can be described thus: Inhibitory activity on PARP1 enzyme (chemiluminescence). Format: biochemical. The protocol:
The inhibitory activity of the compounds on PARP1 enzyme was determined by the chemiluminescence method in the experiment. The experiment was carried out in a 384-well plate. Coating histones in a 384-well plate: 5×histone solution was diluted 5 folds with PBS, added to a 384-well ELISA plate (25 μL per well), and incubated at 4° C. overnight. […] A mixture of PARP reaction biotin-labeled substrate, activated DNA, 10×PARP buffer and water was added (12.5 μL per well). Compound solutions with different concentrations were formulated using the experimental buffer (10% DMSO aqueous solution containing 1.25 mM DTT). The final detection concentration started from 100 nM, with 3-fold dilution and 8 concentrations. The compound solutions were added to the reaction wells of the 384-well plate (2.5 μL per well). 2.5 μL of 10% DMSO aqueous solution containing 1.25 mM DTT was added to the positive control well and blank well (2.5 μL per well). […] The plate was centrifuged at 1000 rpm for 1 minute, and reacted at room temperature for 60 minutes. […] Streptavidin-HRP solution diluted 50 folds with Blocking buffer 3 was added (25 μL per well), and the plate was incubated at room temperature for 30 minutes. […] The luminescence reaction solution obtained by mixing ECL substrate A and ELISA ECL substrate B (1:1) was added (50 μL per well) for reaction. The chemiluminescence values were measured immediately with a BioTek Synergy H1 or Envision instrument.
The chemiluminescence values were measured with a BioTek Synergy H1 or Envision instrument. The inhibition rate was calculated, and the concentration and inhibition rate were fitted to a nonlinear regression curve using Graphpad Prism software to obtain the IC50 value.

Data set [2] deals with BRCA2 Knockout DLD-1 cells. The data set can be described thus: Inhibition of proliferation of BRCA2 Knockout DLD-1 cells (CellTiter-Glo). The note with it: Homo sapiens, about 144 hours incubation. Format: cell-based. As to the method: BRCA2 Knockout DLD-1 cells were cultured using RPMI1640 culture medium containing 10% FBS to an appropriate cell density. The cells were collected, and adjusted to an appropriate cell concentration using the complete culture medium. The cell suspension was spread on a 96-well plate (90 μL per well), and placed in a 37° C., 5% CO2 incubator overnight. Compound solutions of different concentrations were formulated using DMSO and culture medium, and vehicle control was set up. The compound solutions were added to the 96-well plate (10 μL per well), and the plate was incubated in a 37° C., 5% CO2 incubator for about 144 hours. CellTiter-Glo solution was added, and the plate was shaken to mix evenly, and incubated in the dark for 10 to 30 minutes. The values were measured with a Synergy H1 or Envision microplate reader.
The inhibition rate was calculated using the luminescence signal value. The concentration and inhibition rate were fitted to a nonlinear regression curve using Graphpad Prism software to obtain the IC50 value.
On the technique in general: In ATP-based viability assays light output follows the ATP content of the culture.

A short description of data set [3]: PK part of PK/PD study in MDA-MB-436 subcutaneous xenograft model: plasma and tumor concentration. The note with it: female, BALB/c nude, mouse, single oral 0.3 mg/kg. It is filed as in vivo, BALB/c nude mice. An excerpt: • a. […] Cells were passaged once every three days. […] The resulting suspension was placed in an ice box for later use.
• a. […] During the inoculation, the cell suspension was mixed well. […] The nude mouse was bound with the left hand. […] Inoculation started after 30 seconds. • d.
• a. Grouping: According to the growth of the tumor, when the tumor grew to a volume of 300-500 mm^3, tumor-bearing mice were selected according to the experimental design and randomly grouped (3 mice per each time point) to start the PK/PD test. • b. Fasting: All tumor-bearing mice were fasted (with free access to water) overnight (fasting >8 hours) before the administration. • c. Administration: Except for the blank control group, a single oral administration was carried out according to the time of the experimental design, and the administration volume was 10 mL/kg. • d. Sample collection: The mice were euthanized by CO2 asphyxiation according to the time of the experimental design, and the samples were collected. One plasma sample and three tumor tissue samples were collected from each animal.
Plasma collection: After the mouse was euthanized, blood was collected from the heart. The collected blood was added to a centrifuge tube containing EDTA-K2. The tube was manually inverted 3 to 4 times, placed on ice, and centrifuged at 8000 rpm at 4° C. for 5 minutes. 100 μL of the centrifuged plasma was transferred to a new labeled centrifuge tube. One aliquot of plasma was quickly freezed on dry ice, and stored in a refrigerator at −80±10° C. for PK test.
Tumor tissue collection: After the blood collection, the tumor tissue was collected. The collected tumor tissue was divided into 3 aliquots (˜0.1 g each), placed into labeled 2 mL centrifuge tubes, and stored in a refrigerator at −80±10° C. for PK or PD test.
a. Sample Process: • 1) 4 parts by weight of 20% methanol in water was added to 1 part by weight of the tumor tissue sample, and homogenized at 40 Hz for 400 seconds.

Where [4] appears, read: plasma, read-out: Mean plasma concentration.
Setting [5] is: tumor tissue, read-out: Mean tumor tissue concentration.

For orientation: IC50 means the concentration at which inhibition is half-maximal.

Chain of PARP1 enzyme (P09874 whole entry): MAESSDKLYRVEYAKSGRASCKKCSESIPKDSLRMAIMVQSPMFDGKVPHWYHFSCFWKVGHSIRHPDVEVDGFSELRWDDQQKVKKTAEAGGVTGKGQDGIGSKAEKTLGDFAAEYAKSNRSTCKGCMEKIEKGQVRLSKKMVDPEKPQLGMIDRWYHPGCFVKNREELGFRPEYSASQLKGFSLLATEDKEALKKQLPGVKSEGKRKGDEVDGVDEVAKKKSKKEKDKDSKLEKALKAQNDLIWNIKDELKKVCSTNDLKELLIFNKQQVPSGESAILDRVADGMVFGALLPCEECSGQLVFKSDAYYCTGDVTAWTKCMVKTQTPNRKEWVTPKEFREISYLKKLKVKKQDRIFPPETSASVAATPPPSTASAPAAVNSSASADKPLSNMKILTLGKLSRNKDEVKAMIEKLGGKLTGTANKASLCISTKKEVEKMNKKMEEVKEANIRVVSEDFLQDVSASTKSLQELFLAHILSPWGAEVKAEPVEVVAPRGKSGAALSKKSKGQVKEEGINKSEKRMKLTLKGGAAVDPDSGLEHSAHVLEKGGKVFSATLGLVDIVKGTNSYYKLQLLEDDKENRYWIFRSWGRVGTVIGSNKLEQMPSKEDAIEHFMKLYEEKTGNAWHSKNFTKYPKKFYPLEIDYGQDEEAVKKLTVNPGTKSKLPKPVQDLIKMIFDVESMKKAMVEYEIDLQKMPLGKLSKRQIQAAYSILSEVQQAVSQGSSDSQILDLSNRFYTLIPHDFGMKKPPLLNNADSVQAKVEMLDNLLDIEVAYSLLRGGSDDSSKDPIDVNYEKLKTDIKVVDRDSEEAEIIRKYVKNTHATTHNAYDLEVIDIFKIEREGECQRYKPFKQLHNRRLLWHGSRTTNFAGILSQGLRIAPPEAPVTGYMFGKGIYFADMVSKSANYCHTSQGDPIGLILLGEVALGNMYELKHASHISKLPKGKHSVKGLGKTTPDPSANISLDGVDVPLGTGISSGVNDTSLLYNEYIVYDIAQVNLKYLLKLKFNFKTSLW

For `CCc1cc2ncc(CN3CCC(c4ccc(C(=O)NC)nc4)=C(F)C3)cc2[nH]c1=O` [Example 81, 1′-((7-Ethyl-6-oxo-5,6-dihydro-1,5-naphthyridin-3-yl)methyl)-5′-fluoro-N-methyl-1′,2′,3′,6′-tetrahydro-[3,4′-bipyridine]-6-carboxamide], the half-maximal inhibitory concentration (IC50) worked out at 0.9 nM in data set [1] and 1.5 nM in data set [2].
As for `CCc1cc2ncc(CN3CCN(c4ccc(C(=O)NC)nc4)CC3)cc2[nH]c1=O` [AZD5305, reference compound], in data set [3] (setting [4]), the concentration at 1 h stood at 1460 ng/mL, the concentration at 2 h came to 1370 ng/mL, the concentration at 4 h turned out to be 1120 ng/mL and the concentration at 6 h was found to be 713 ng/mL. Besides, in data set [3] (setting [4]), the concentration at 8 h is 584 ng/mL, the concentration at 16 h turned out to be 252 ng/mL, the concentration at 24 h was 102 ng/mL and the concentration at 32 h turned out to be 41 ng/mL. For the same molecule, in data set [3] (setting [4]), the concentration at 48 h was found to be 10 ng/mL and the concentration at 72 h is 6 ng/mL. Also, in data set [3] (setting [5]), the concentration at 1 h is 41 ng/g, the concentration at 2 h was determined as 100 ng/g, the concentration at 4 h worked out at 131 ng/g and the concentration at 6 h came out at 117 ng/g. Besides, in data set [3] (setting [5]), the concentration at 8 h worked out at 95 ng/g, the concentration at 16 h turned out to be 94 ng/g, the concentration at 24 h worked out at 61 ng/g and the concentration at 32 h worked out at 59 ng/g. Further, in data set [3] (setting [5]), the concentration at 48 h is 44 ng/g and the concentration at 72 h came to 31 ng/g.
In the case of `CCc1cc2ncc(CN3CC=C(c4cnc5c(NC)nccc5c4)CC3)cc2[nH]c1=O` [Example 102, 3-Ethyl-7-((4-(8-(methylamino)-1,7-naphthyridin-3-yl)-3,6-dihydropyridin-1(2H)-yl)methyl)-1,5-naphthyridin-2(1H)-one], the IC50 in data set [2] was 5.2 nM.
For the molecule `CCc1cc2ncc(CN3CC=C(c4ncc(C)n4C)CC3)cc2[nH]c1=O` [Example 53, 7-((4-(1,5-Dimethyl-1H-imidazol-2-yl)-3,6-dihydropyridin-1(2H)-yl)methyl)-3-ethyl-1,5-naphthyridin-2(1H)-one], the figures for the IC50 in data set [1] and in data set [2] were 0.96 nM and 7.5 nM, respectively.
On to `CNC(=O)c1ccc(C2=CCN(Cc3cnc4cc(C(F)(F)F)c(=O)[nH]c4c3)CC2)cn1` [Example 84, N-Methyl-1′-((6-oxo-7-(trifluoromethyl)-5,6-dihydro-1,5-naphthyridin-3-yl)methyl)-1′,2′,3′,6′-tetrahydro-[3,4′-bipyridine]-6-carboxamide], for which the IC50 stood at 2.7 nM in data set [1] and 5.1 nM in data set [2].
As for `CCc1cc2ncc(C(C)N3CC=C(c4ccc(C(=O)NC)nc4)CC3)cc2[nH]c1=O` (centres unmarked) [Example 93, 1′-(1-(7-Ethyl-6-oxo-5,6-dihydro-1,5-naphthyridin-3-yl)ethyl)-N-methyl-1′,2′,3′,6′-tetrahydro-[3,4′-bipyridine]-6-carboxamide], the 50% inhibitory concentration (IC50) in data set [1] was 2.1 nM; in data set [2], 3.6 nM.
In the same order, the values of `CCc1cc2ncc(CN3CC=C(c4ccc(C(=O)NOC)nc4)CC3)cc2[nH]c1=O` [Example 30, 1′-((7-Ethyl-6-oxo-5,6-dihydro-1,5-naphthyridin-3-yl)methyl)-N-methoxy-1′,2′,3′,6′-tetra hydro-[3,4′-bipyridine]-6-carboxamide] are 1.4 nM and 3.2 nM.
As for `[2H]C([2H])([2H])Nc1nccc2cc(N3CCN(Cc4cnc5cc(CC)c(=O)[nH]c5c4)CC3)cnc12` [Example 98, 3-Ethyl-7-((4-(8-((methyl-d3)amino)-1,7-naphthyridin-3-yl)piperazin-1-yl)methyl)-1,5-naphthyridin-2(1H)-one], in data set [2], the concentration for half-maximal inhibition (IC50) was found to be 1.7 nM.
As to `CCc1cc2ncc(CN3CC=C(c4ccc(C(=O)NCC#N)nc4)CC3)cc2[nH]c1=O` [Example 58, N-(Cyanomethyl)-1′-((7-ethyl-6-oxo-5,6-dihydro-1,5-naphthyridin-3-yl)methyl)-1′,2′,3′,6′-tetrahydro-[3,4′-bipyridine]-6-carboxamide], the 50% inhibitory concentration (IC50) in data set [1] is 0.9 nM; in data set [2], 2.4 nM.
Turning to `CCc1cc2ncc(CN3CC=C(c4ccc(C(=O)NC5(C#N)CC5)nc4)CC3)cc2[nH]c1=O` [Example 59, N-(1-Cyanocyclopropyl)-1′-((7-ethyl-6-oxo-5,6-dihydro-1,5-naphthyridin-3-yl)methyl)-1′,2′,3′,6′-tetrahydro-[3,4′-bipyridine]-6-carboxamide], the half-maximal inhibitory concentration (IC50) in data set [1] worked out at 0.8 nM; in data set [2], 2.7 nM.
As to `CCc1cc2ncc(CN3CC=C(c4ccc(C(=O)NCC(F)(F)F)nc4)CC3)cc2[nH]c1=O` [Example 83, 1′-((7-Ethyl-6-oxo-5,6-dihydro-1,5-naphthyridin-3-yl)methyl)-N-(2,2,2-trifluoroethyl)-1′,2′,3′,6′-tetrahydro-[3,4′-bipyridine]-6-carboxamide], the IC50 in data set [1] and in data set [2] was 1.4 nM throughout.
Take `CCc1cc2ncc(CN3CC=C(c4ccc(C(=O)NC)nc4Cl)CC3)cc2[nH]c1=O` [Example 56, 2-Chloro-1′-((7-ethyl-6-oxo-5,6-dihydro-1,5-naphthyridin-3-yl)methyl)-N-methyl-1′,2′,3′,6′-tetrahydro-[3,4′-bipyridine]-6-carboxamide]: the IC50 in data set [1] came out at 1.3 nM; in data set [2] it was 1 nM.
Turning to `CCc1cc2ncc(CN3CCN(c4cnc5c(NC)ncc(F)c5c4)CC3)cc2[nH]c1=O` [Example 94, 3-Ethyl-7-((4-(5-fluoro-8-(methylamino)-1,7-naphthyridin-3-yl)piperazin-1-yl)methyl)-1,5-naphthyridin-2(1H)-one], the half-inhibitory concentration (IC50) in data set [2] came out at 8.4 nM.
